Experimental data as given in patent US7259004B1, “Endophytic streptomycetes from higher plants with biological activity” (Montana State University, priority 2002, dated 2007).
In brackets after ≈: the same amount, converted by molar mass.

Assays:
Cryptococcus neoformans = assay: microbroth dilution MIC
Candida albicans = assay: microbroth dilution MIC
Aspergillus fumigatus = assay: microbroth dilution MIC
[1] = system: Plasmodium falciparum strain CSC-1 (Honduras); assay: antimalarial assay, 3H-phenylalanine radiobioassay in human red blood cells; details: for IC50 Plasmodium falciparum: human red blood cells, 3H-phenylalanine, standard deviation of the mean, three experiments
[2] = system: Human Cervical Cancer Epithelial ME180; assay: CellTiter 96 Aqueous Non-Radioactive Cell Proliferation Assay; format: cell-based; details: 48 hours, Table 7
Procedure: (§1) The munumbicins were then tested against three human cancer cell lines (ATCC) and human primary mammary epithelial cells (HMECs) (Clonetics; Biowhittaker, Walkersville, Md.) using a CellTiter 96® Aqueous Non-Radioactive Cell Proliferation Assay kit from Promega (Madison, Wis.). The cell lines were A-549 (lung epithelial carcinoma, ATCC CCL-185), ME-180 (cervical epithelial epidermoid carcinoma, ATCC HTB-33), and BT-20 (breast epithelial cancer, ATCC HTB-19), and were grown in the media recommended by ATCC. The primary mammary cells were cultured as recommended by the manufacturer in mammary epithelial cell growth media (MEGM®). […] After seeding, the cells were incubated for five hours at 37° C. before addition of the munumbicins. Two-fold serial dilutions of the munumbicins were made in the culture medium, and a volume equal to that of the seeded cells for each dilution was added to three wells of cells. Each plate also contained some wells with cells plus medium only and some wells with medium only. […] The A-549 and ME-180 cells were incubated for 48 hours. […] The plates were incubated at 37° C. for one to four hours, and the OD490 was determined. The OD reading of all wells was corrected for background by subtracting the reading of wells containing medium only. […] Kakadumycin A was tested against three human cancer cell lines (ATCC) and human primary mammary epithelial cells using the procedure described above for the munumbicins. Kadadumycin B was tested against one human cancer cell line.

[3] = system: Human Lung Cancer Epithelial A549; assay: as above; format: cell-based; details: 48 hours, Table 7
Procedure: as §1

[4] = system: Candida albicans ATCC 24433; assay: disk diffusion assay; format: cell-based; as to diameter of the zone of inhibition, Candida albicans ATCC 24433: key: R = resistant
[5] = system: Candida albicans ATCC 90028; assay: disk diffusion assay; format: cell-based; as to diameter of the zone of inhibition, Candida albicans ATCC 90028: key: R = resistant
[6] = system: Candida parasilosis ATCC 22019; assay: disk diffusion assay; format: cell-based, Candida parapsilosis; as to diameter of the zone of inhibition, Candida parasilosis ATCC 22019: key: R = resistant
[7] = system: Candida tropicalis ATCC 750; assay: disk diffusion assay; format: cell-based; as to diameter of the zone of inhibition, Candida tropicalis ATCC 750: key: R = resistant
Candida krusei ATCC 6258 = assay: disk diffusion assay; format: cell-based
[8] = system: Candida glabrata ATCC 2001; assay: disk diffusion assay; format: cell-based; as to diameter of the zone of inhibition, Candida glabrata ATCC 2001: key: R = resistant
[9] = system: Candida parasdosis ATCC 90018; assay: disk diffusion assay; format: cell-based, Candida parapsilosis; as to diameter of the zone of inhibition, Candida parasdosis ATCC 90018: key: R = resistant
[10] = system: Cryptococcus neoformans ATCC 32045; assay: disk diffusion assay; format: cell-based; details: A3-5-1 10 micrograms; Flucytosine 10 micrograms; RPMI-glucose agar 35° C.
[11] = system: Saccharomyces cerevisiae ATCC 9763; assay: disk diffusion assay; format: cell-based; details: A3-5-1 10 micrograms; Flucytosine 10 micrograms; RPMI-glucose agar 35° C.
B. subtilis 1A757 = assay: microbe, parasite or virus in culture; format: cell-based, Bacillus subtilis
[12] = system: M. tuberculosis H37Rv (ATCC 25618) (drug sensitive); assay: IC50 in Mycobacteria 7H11 agar; format: cell-based, Mycobacterium tuberculosis; details: Mycobacterium tuberculosis; 7H11 agar with 10% OADC
[13] = system: RNA synthesis in Bacillus subtilis; assay: macromolecular synthesis whole cell assay, [3H]uridine incorporation; format: cell-based; details: 1×MIC
[14] = system: Cell wall synthesis in Bacillus subtilis; assay: macromolecular synthesis whole cell assay, [3H]N-acetyl glucosamine incorporation; format: cell-based; details: 1×MIC
[15] = system: Enterococcus faecium ATCC 49624; assay: disk diffusion assay; format: cell-based; details: 10 micrograms per disk; ciprofloxacin 5, vancomycin 30 micrograms per disk; 35° C.
[16] = system: Enterococcus faecium ATCC 51559; assay: disk diffusion assay; format: cell-based; details: 10 micrograms per disk; ciprofloxacin 5, vancomycin 30 micrograms per disk; 35° C.
[17] = system: Pseudomonas aeruginosa ATCC 27853; assay: disk diffusion assay; format: cell-based; details: 10 micrograms per disk; ciprofloxacin 5, vancomycin 30 micrograms per disk; 35° C. Also: key: R = resistant.
Vibrio fischeri PIC 345 = assay: disk diffusion assay; format: cell-based; details: 10 micrograms per disk; ciprofloxacin 5, vancomycin 30 micrograms per disk; 35° C.
[18] = system: Enterococcus faecalis ATCC 29212; assay: disk diffusion assay; format: cell-based; details: 10 micrograms per disk; ciprofloxacin 5, vancomycin 30 micrograms per disk; 35° C.
[19] = system: Enterococcus faecalis ATCC 51299; assay: disk diffusion assay; format: cell-based; details: 10 micrograms per disk; ciprofloxacin 5, vancomycin 30 micrograms per disk; 35° C.
[20] = system: Staphylococcus aureus ATCC 29213; assay: disk diffusion assay; format: cell-based; details: 10 micrograms per disk; ciprofloxacin 5, vancomycin 30 micrograms per disk; 35° C.
[21] = system: Acinetobacter sp. ATCC 49137; assay: disk diffusion assay; format: cell-based; details: 10 micrograms per disk; ciprofloxacin 5, vancomycin 30 micrograms per disk; grown at 30° C.
[22] = system: Neisseria gonnorhea ATCC 49226; assay: disk diffusion assay; format: cell-based; details: 10 micrograms per disk; ciprofloxacin 5, vancomycin 30 micrograms per disk; GC agar with 1% growth supplement with 5% CO2
[23] = system: Streptococcus pneumoniae ATCC 49619; assay: disk diffusion assay; format: cell-based; details: 10 micrograms per disk; ciprofloxacin 5, vancomycin 30 micrograms per disk; MHA with 5% dsb. and 5% CO2
[24] = system: Escherichia coli ATCC 25922; assay: disk diffusion assay; format: cell-based; details: 10 micrograms per disk; penicillin G 10 units per disk; 35° C. Also: key: R = resistant.
S. epidermis ATCC 12228 = assay: disk diffusion assay; format: cell-based, Staphylococcus epidermidis; details: 10 micrograms per disk; 35° C.
[25] = system: S. maltophilia ATCC 13637; assay: disk diffusion assay; format: cell-based, Stenotrophomas maltophilia; details: 10 micrograms per disk; 35° C.
[26] = system: Shigella dysenteriae ATCC 11835; assay: disk diffusion assay; format: cell-based; details: 10 micrograms per disk; 35° C.
Geotrichum candidum = assay: microbroth dilution MIC, plant associated microorganisms; format: cell-based; details: PD broth, 48 hours at 23° C.
Procedure: (§2) Incubation was for 48 hours at 23° C. A plant pathogenic strain of Pseudomonas syringae was also tested using the same PD broth medium and with concentrations of colony forming units as given above. The organisms were obtained from the Montana State University plant pathogen culture collection administered by Dr. […] The relative activities against plant pathogenic fungi ranged from a few tenths of a microgram up to thirty micrograms. Table 2 provides the results of tests of inhibitory activity of the munumbicins against various plant-pathogenic fungi and one pathogenic bacterium. The data are reported as MIC values in micrograms/ml.

Phytophthora cinnamomi = assay: as above; format: cell-based; details: PD broth, 48 hours at 23° C.
Procedure: as §2

Pseudomonas syringae = assay: as above; format: cell-based; details: PD broth
Procedure: as §2

Pythium ultimum = assay: as above; format: cell-based; details: PD broth, 48 hours at 23° C.
Procedure: as §2

Rhizoctonia solani = assay: as above; format: cell-based; details: PD broth, 48 hours at 23° C.
Procedure: as §2

Sclerotinia sclerotiorum = assay: as above; format: cell-based; details: PD broth, 48 hours at 23° C.
Procedure: as §2

[27] = system: Human Breast Cancer Epithelial BT-20; assay: CellTiter 96 Aqueous Non-Radioactive Cell Proliferation Assay; format: cell-based; details: 96-144 hours; Table 7
Procedure: as §1

[28] = system: Human Primary Mammary Epithelial HMEC; assay: as above; format: cell-based; details: 48 hours; Table 7
Procedure: as §1

brine shrimp = brine shrimp assays; details: preliminary assays
[29] = system: Staphyloccus aureus MH II Eli Lilly Co.; assay: microbroth dilution MIC; details: drug sensitive strain
[30] = A3-5-1 10 micrograms, Flucytosine 10 micrograms, RPMI-glucose agar 35° C.

C[C@@H]1[C@H](O)[C@@H](C)/C=C/C=C/C=C/C=C/C=C/C=C/C=C/[C@H](O[C@@H]2O[C@H](C)[C@@H](O)[C@H](N)[C@@H]2O)C[C@@H]2O[C@](O)(C[C@@H](O)C[C@@H](O)[C@H](O)CC[C@@H](O)C[C@@H](O)CC(=O)O[C@H]1C)C[C@H](O)[C@H]2C(=O)O [Amphotericin B, reference compound]
MIC Cryptococcus neoformans (Cryptococcus neoformans): 0.13 micrograms/ml | MIC Candida albicans (Candida albicans): 1.25 micrograms/ml | MIC Aspergillus fumigatus (Aspergillus fumigatus): 0.62 micrograms/ml

CCN(CC)CCCC(C)Nc1ccnc2cc(Cl)ccc12 (stereo not drawn) [Chloroquine, reference compound]
IC50 ([1]; Plasmodium falciparum, Erythrocyte, read-out: IC50 Plasmodium falciparum): 7 ng/mL (≈ 0.0219 µM) | IC50 Plasmodium falciparum [1]: 7.0 ± 0 ng/mL (≈ 0.0219 µM)

CC[C@H]1OC(=O)[C@H](C)[C@@H](O[C@H]2C[C@@](C)(OC)[C@@H](O)[C@H](C)O2)[C@H](C)[C@@H](O[C@@H]2O[C@H](C)C[C@H](N(C)C)[C@H]2O)[C@](C)(O)C[C@@H](C)C(=O)[C@H](C)[C@@H](O)[C@]1(C)O [Erythromycin, reference compound]
IC50 ([2]; Homo sapiens, ME-180, read-out: IC50 Human Cervical Cancer Epithelial ME180): > 40000 ng/mL | IC50 ([3]; Homo sapiens, A549, read-out: IC50 Human Lung Cancer Epithelial A549): > 40000 ng/mL

Nc1[nH]c(=O)ncc1F [Flucytosine, reference compound]
Disk Diffusion, Candida albicans 24433 [4, 30]: 20 mm | Disk Diffusion, Candida albicans 90028 [5, 30]: 37 mm | Disk Diffusion, Candida parapsilosis 22019 [6, 30]: 46 mm | Disk Diffusion, Candida tropicalis 750 [7, 30]: 47 mm | Disk Diffusion, Candida krusei 6258 (Candida krusei ATCC 6258; [30]): 7 mm | Disk Diffusion, Candida glabrata 2001 [8, 30]: 53 mm | Disk Diffusion, Candida parapsilosis 90018 [9, 30]: 57 mm | Disk Diffusion, Cryptococcus neoformans 32045 [10]: 42 mm | Disk Diffusion, Saccharomyces cerevisiae 9763 [11]: 50 mm

CO[C@H]1/C=C/O[C@@]2(C)Oc3c(C)c(O)c4c(O)c(c(/C=N/N5CCN(C)CC5)c(O)c4c3C2=O)NC(=O)/C(C)=C\C=C\[C@H](C)[C@H](O)[C@@H](C)[C@@H](O)[C@@H](C)[C@H](OC(C)=O)[C@@H]1C [Rifampicin, reference compound]
1×MIC against Bacillus subtilis (B. subtilis 1A757): 0.25 micrograms/ml | IC50 [12]: < 1000 ng/mL | % [3H]uridine (RNA synthesis) incorporation of that of the untreated culture ([13]; 5 min): 13% | % [3H]uridine (RNA synthesis) incorporation of that of the untreated culture ([13]; 10 min): 15% | % [3H]N-acetyl glucosamine (Cell wall synthesis) incorporation of that of the untreated culture ([14]; 5 min): 47% | % [3H]N-acetyl glucosamine (Cell wall synthesis) incorporation of that of the untreated culture ([14]; 10 min): 48%

Penicillin
diameter of the zone of inhibition, Enterococcus faecium ATCC 49624 [15]: 21 mm | diameter of the zone of inhibition, Enterococcus faecium ATCC 51559 [16]: 0 mm

munumbicin D
diameter of the zone of inhibition, Pseudomonas aeruginosa ATCC 27853 [17]: R | diameter of the zone of inhibition, Vibrio fischeri PIC 345 (Vibrio fischeri PIC 345): 12 mm | diameter of the zone of inhibition, Enterococcus faecalis ATCC 29212 [18]: 16 mm | diameter of the zone of inhibition, Enterococcus faecalis ATCC 51299 [19]: 16 mm | diameter of the zone of inhibition, Staphylococcus aureus ATCC 29213 [20]: 13 mm | diameter of the zone of inhibition, Acinetobacter sp. ATCC 49137 [21]: R | diameter of the zone of inhibition, Neisseria gonnorhea ATCC 49226 [22]: 9 mm | diameter of the zone of inhibition, Streptococcus pneumoniae ATCC 49619 [23]: 16 mm | diameter of the zone of inhibition, Escherichia coli ATCC 25922 [24]: R | diameter of the zone of inhibition, S. epidermis ATCC 12228 (S. epidermis ATCC 12228): 14 mm | diameter of the zone of inhibition, S. maltophilia ATCC 13637 [25]: R | diameter of the zone of inhibition, Shigella dysenteriae ATCC 11835 [26]: R | diameter of the zone of inhibition, Candida albicans ATCC 24433 ([4]; 10 micrograms per disk, 35° C.): R | diameter of the zone of inhibition, Candida albicans ATCC 90028 ([5]; 10 micrograms per disk, 35° C.): R | diameter of the zone of inhibition, Candida parasilosis ATCC 22019 ([6]; 10 micrograms per disk, 35° C.): R | diameter of the zone of inhibition, Candida tropicalis ATCC 750 ([7]; 10 micrograms per disk, 35° C.): R | diameter of the zone of inhibition, Candida krusei ATCC 6258 (Candida krusei ATCC 6258; 10 micrograms per disk, 35° C.): R | diameter of the zone of inhibition, Candida glabrata ATCC 2001 ([8]; 10 micrograms per disk, 35° C.): R | diameter of the zone of inhibition, Candida parasdosis ATCC 90018 ([9]; 10 micrograms per disk, 35° C.): R | MIC Geotrichum candidum (Geotrichum candidum): 31.2 micrograms/ml | MIC Phytophthora cinnamomi (Phytophthora cinnamomi): 15.6 micrograms/ml | MIC Pseudomonas syringae (Pseudomonas syringae): 0.2 micrograms/ml | MIC Pythium ultimum (Pythium ultimum): 0.4 micrograms/ml | MIC Rhizoctonia solani (Rhizoctonia solani): 15.6 micrograms/ml | MIC Sclerotinia sclerotiorum (Sclerotinia sclerotiorum): 2.0 micrograms/ml | IC50 Human Breast Cancer Epithelial BT-20 [27]: 0.07 micrograms/ml | IC50 Human Cervical Cancer Epithelial ME180 [2]: 0.2 micrograms/ml | IC50 Human Lung Cancer Epithelial A549 [3]: 2.6 micrograms/ml | IC50 Human Primary Mammary Epithelial HMEC [28]: 0.425 micrograms/ml | concentration causing detectable lysis of human red blood cells (human red blood cells): > 80 micrograms/ml | LC50 brine shrimp (brine shrimp): 1.7 micrograms/ml | MIC Cryptococcus neoformans (Cryptococcus neoformans): 10 micrograms/ml | MIC Candida albicans (Candida albicans): >10 micrograms/ml | MIC Aspergillus fumigatus (Aspergillus fumigatus): 20 micrograms/ml | MIC Staphyloccus aureus MH II Eli Lilly Co. [29]: 0.4 micrograms/ml | IC50 Plasmodium falciparum [1]: 4.5 ± 0.7 ng/mL
